The record followed here is PMC3510490, “Structure of Actin-related protein 8 and its contribution to nucleosome binding” (Nucleic Acids Research, 2012).

In one test the target is T1, yeast Arp8 (Saccharomyces cerevisiae, UniProt Q12386).
T1 construct: recombinant from HighFive insect cells, prepared as described previously; monomer
T1 sequence (Q12386 1-881): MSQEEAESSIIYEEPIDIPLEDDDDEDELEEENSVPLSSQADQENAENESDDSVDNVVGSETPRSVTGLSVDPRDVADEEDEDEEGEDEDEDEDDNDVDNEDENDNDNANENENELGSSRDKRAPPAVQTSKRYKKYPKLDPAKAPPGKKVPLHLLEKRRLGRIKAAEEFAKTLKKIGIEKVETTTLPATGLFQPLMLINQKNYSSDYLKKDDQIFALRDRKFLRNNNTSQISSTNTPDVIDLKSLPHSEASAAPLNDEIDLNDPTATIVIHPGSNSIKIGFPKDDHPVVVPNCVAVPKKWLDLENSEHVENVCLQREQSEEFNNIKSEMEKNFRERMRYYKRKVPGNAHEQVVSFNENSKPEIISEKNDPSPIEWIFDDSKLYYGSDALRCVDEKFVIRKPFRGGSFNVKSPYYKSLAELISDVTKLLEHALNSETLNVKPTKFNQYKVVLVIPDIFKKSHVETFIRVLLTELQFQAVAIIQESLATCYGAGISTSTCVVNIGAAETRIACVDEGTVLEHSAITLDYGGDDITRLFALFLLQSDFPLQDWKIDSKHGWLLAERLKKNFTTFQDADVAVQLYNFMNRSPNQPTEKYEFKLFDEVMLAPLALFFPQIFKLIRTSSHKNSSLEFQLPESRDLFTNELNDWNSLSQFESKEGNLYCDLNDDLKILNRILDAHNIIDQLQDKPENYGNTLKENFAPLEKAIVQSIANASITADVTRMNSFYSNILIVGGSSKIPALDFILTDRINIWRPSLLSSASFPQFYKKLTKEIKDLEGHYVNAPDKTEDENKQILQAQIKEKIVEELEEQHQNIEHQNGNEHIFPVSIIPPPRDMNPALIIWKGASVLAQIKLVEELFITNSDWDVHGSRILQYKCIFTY
Kind of test: […] phosphate release, TLC. The settings on record: 100 µM ATP with 5 nM [γ-32P]ATP (labelled compound), 2 mM MgCl2, pH 7.9, 30 °C. The format is biochemical.

The target of a further test is T2, human Arp8 (Homo sapiens, UniProt Q9H981).
T2 construct: gene ACTR8; monomer
Kind of test: […] phosphate release, TLC. The settings on record: 100 µM ATP with 5 nM [γ-32P]ATP (labelled compound), 2 mM MgCl2, pH 7.9, 30 °C; construct (full-length or Δ1-33) not stated. The test is classed as biochemical.

Test [1] deals with T3, Homo sapiens Arp8 (Δ1–33) (Homo sapiens, UniProt Q9H981).
T3 construct: gene ACTR8; N-terminal 8xHis tag cleaved by PreScission protease; E. coli BL21(DE3); monomer
Kind of test: X-ray crystal structure, […] Å. The settings on record: ATP co-purified from expression host, not added; one metal ion (likely Mg2+); nucleotide-binding cleft; pH 6.1.

Test [2] has as its target T4, Saccharomyces cerevisiae INO80 sub-complex I (Arp8–Arp4–actin-HSA) (Saccharomyces cerevisiae, UniProt P60010+Q12386).
T4 construct: co-expressed Arp4, Arp8, actin and His6-Ino80(462-685) in HighFive insect cells; monomeric complex; with Actin-related protein 4; Chromatin-remodeling ATPase INO80
The experiment in a line: […] phosphate release, TLC. The test is classed as biochemical. The settings on record: 100 µM ATP with 5 nM [γ-32P]ATP (labelled compound), 2 mM MgCl2, pH 7.9, 30 °C; active subunit not resolved (Arp8 and/or actin).

T3 sequence (Q9H981 34-624, stated change not applied): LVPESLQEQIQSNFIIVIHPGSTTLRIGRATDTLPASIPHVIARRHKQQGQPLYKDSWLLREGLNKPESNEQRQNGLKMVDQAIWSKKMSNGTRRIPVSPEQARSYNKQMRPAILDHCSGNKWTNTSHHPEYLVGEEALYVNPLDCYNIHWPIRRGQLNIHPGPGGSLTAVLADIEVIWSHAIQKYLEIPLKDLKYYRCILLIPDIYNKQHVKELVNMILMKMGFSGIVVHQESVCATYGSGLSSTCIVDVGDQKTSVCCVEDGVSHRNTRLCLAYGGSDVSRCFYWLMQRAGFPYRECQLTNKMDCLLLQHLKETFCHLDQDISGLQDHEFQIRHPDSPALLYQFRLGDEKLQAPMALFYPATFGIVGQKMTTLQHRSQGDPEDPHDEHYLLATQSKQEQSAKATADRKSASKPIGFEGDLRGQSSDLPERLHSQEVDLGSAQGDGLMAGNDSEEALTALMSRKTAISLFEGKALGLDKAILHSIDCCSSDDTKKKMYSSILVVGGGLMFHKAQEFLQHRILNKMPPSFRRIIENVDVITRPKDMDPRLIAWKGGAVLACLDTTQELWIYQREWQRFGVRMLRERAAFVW
T2 sequence (Q9H981 whole entry): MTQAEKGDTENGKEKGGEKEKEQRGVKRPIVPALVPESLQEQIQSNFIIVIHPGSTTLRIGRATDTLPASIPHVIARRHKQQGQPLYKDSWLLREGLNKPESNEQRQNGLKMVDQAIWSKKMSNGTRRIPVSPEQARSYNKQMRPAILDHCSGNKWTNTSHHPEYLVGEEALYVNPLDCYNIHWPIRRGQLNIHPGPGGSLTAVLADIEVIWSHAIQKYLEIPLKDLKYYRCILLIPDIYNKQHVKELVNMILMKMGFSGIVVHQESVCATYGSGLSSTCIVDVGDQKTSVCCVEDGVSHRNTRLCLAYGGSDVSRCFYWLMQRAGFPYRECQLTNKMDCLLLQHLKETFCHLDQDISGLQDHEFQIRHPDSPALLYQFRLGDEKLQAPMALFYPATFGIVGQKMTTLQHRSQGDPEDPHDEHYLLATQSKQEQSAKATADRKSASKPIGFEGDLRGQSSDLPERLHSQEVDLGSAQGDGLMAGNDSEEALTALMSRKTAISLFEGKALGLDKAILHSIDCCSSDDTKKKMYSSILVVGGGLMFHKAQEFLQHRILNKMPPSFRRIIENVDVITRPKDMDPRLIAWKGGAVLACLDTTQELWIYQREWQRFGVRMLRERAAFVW

As to `Nc1ncnc2c1ncn2[C@@H]1O[C@H](COP(=O)(O)OP(=O)(O)OP(=O)(O)O)[C@@H](O)[C@H]1O` [ATP], the “low basal ATPase activity” value on yeast Arp8 is “yeast and human Arp8 possess a low basal ATPase activity”; on human Arp8 it was “yeast and human Arp8 possess a low basal ATPase activity”; in test [2] it was “sub-complex I (Arp8–Arp4–actin-HSA) also shows a low basal ATPase activity”. For the same compound, the “X-ray crystal structure, 2.6 Å” value in test [1] is “Electron density in the nucleotide-binding cleft of actin could clearly be assigned to ATP”.
